# According to US8709405B2, “Cancer vaccines containing epitopes of oncofetal antigen” (South Alabama Medical Science Foundation, priority 2002, dated 2014):
# Experiments:
# Assay type in all cases: cell-based, BALB/c mouse
# [1] = tested on: CD8 T cell clone H5 (Ts); assay: BUdR incorporation ELISA proliferation assay, Ts clone H5; conditions: Table 4
# Protocol: (§1) The epitopes recognized by 15 iLRP-reactive T cell clones derived from either naive BALB/c mice, BALB/c mice bearing MCA1315 fibrosarcoma tumors, or from BALB/c mice immunized with either 1 or 10 μg of recombinant murine iLRP were determined by testing the proliferation of those clones to overlapping peptides spanning the region of the iLRP molecule recognized by each clone in the presence of IL-2, as a growth factor for T cells and irradiated, T cell-depleted, syngeneic spleen cells as antigen-presenting cells. Proliferation was measured through ELISA determination of 5-bromodeoxyuridine incorporation during culture.
# (§2) More specifically, the epitope-specificity of the iLRP-specific Th1, Tc, and Ts clones was determined using a modification of the 5′-bromodeoxyuridine (BudR) incorporation ELISA technique described in Rohrer, J. W., A. L. Barsoum, D. L. Dyess, J. A. Tucker, and J. H. Coggin, Jr. 1999. Human breast carcinoma patients develop clonable oncofetal antigen-specific effector and regulatory T lymphocytes. J. Immunol. 162:6880, using the Biotrak BUdR incorporation assay (Amersham, Arlington Heights, Ill.). […] When the required color density was reached, the reaction was stopped by adding 25 μl of 1M sulfuric acid to each well and the plate read on a microELISA reader at 450 nm. […]
# [2] = tested on: iLRP-specific T cell clone L1 (CD8 Ts); assay: BUdR incorporation ELISA proliferation assay, Ts clone L1; conditions: Table 3; for BUdR Incorporation (A450) of iLRP-specific T cell clone L1 cells, Expt. 1 / BUdR Incorporation (A450) of iLRP-specific T cell clone L1 cells, Expt. 2: 100 ng/well stimulant with irradiated syngeneic spleen cells (APC), 48 h culture
# Protocol: as §1
# (§3) More specifically, the epitope-specificity of the iLRP-specific Th1, Tc, and Ts clones was determined using a modification of the 5′-bromodeoxyuridine (BudR) incorporation ELISA technique described in Rohrer, J. W., A. L. Barsoum, D. L. Dyess, J. A. Tucker, and J. H. Coggin, Jr. 1999. Human breast carcinoma patients develop clonable oncofetal antigen-specific effector and regulatory T lymphocytes. J. Immunol. 162:6880, using the Biotrak BUdR incorporation assay (Amersham, Arlington Heights, Ill.). Briefly, at the time of restimulation of the clones, a portion of the cloned T cells were assayed for proliferation to antigen-presenting cells (APC) and various iLRP peptides. The assay was performed with 10,000 viable cloned T cells/well plus […] irradiated syngeneic spleen cells (APC) plus 100 ng/well of intact iLRP/OFA protein or the various truncated iLRP/OFA proteins or the various iLRP/OFA peptides in Iscove's modified Dulbecco's medium (IMDM) containing 2 mM L-glutamine, 100 U/ml of penicillin G, 100 μg of streptomycin sulfate, and 10% fetal calf serum. The cells were cultured for a total of 48 hours. After 24 hours of culture 5′-bromodeoxyuridine was added to a final concentration of 10 μM/well. The cells were cultured for another 24 hours. At the end of the last 24 hours of incubation, the plates were centrifuged at 300×g for 10 min, and the labelling medium removed. The cells were then dried at 60° C. for 1 hour. The cells were fixed with an ethanol fixative provided in the Biotrak kit for 30 min at room temperature, fixative was removed, and the wells were coated with blocking buffer (1% protein in 50 mM Tris-HCl, 150 mM NaCl, pH 7.4) and incubated for 30 min at room temperature. The blocking buffer was removed, 100 μl of 1:100 diluted peroxidase-labelled anti-BUdR antibody was added to each well and the plates were incubated for 90 min at room temperature. The antibody solution was removed, and the wells washed three times with 300 μl/well of wash buffer. 200 μl of 3,3′, 5,5′-tetramethylbenzidine in […] DMSO was added to each well and the plate was covered and incubated at room temperature while oscillating gently for 5-30 min. When the required color density was reached, the reaction was stopped by adding 25 μl of 1M sulfuric acid to each well and the plate read on a microELISA reader at 450 nm.
# (§4) Each time the assay was done, clones were stimulated by APC and intact iLRP/OFA as a positive control. Cloned T cells were also cultured in the presence of only APC in IMDM or in the presence of APC and an iLRP/OFA peptide or truncated iLRP/OFA known not to stimulate the clones being tested. These served as negative controls. In wells where BUdR was incorporated (the iLRP/OFA stimulates proliferation of the T cells), the A450 was at least 10-fold and often approximately 50-fold higher than the negative controls. Because the Ts cells always presented with apparently low affinity T cell antigen receptors, their BUdR incorporation gave A450 values about 10 times higher than the negative controls (e.g., about 0.2 vs. 0.02), but about 5 times lower than the Th1 or Tc clones (e.g., usually about 0.9).
# Overlapping 12mer peptides of the first 25 amino acids of murine iLRP were produced. Thus, peptides 1-4 corresponded to amino acid residues 1-12, 5-16, 9-20 and 17-28 of murine iLRP. […]
# [3] = tested on: CD8 T cell clone M3 (Tc); assay: BUdR incorporation ELISA proliferation assay, Tc clone M3; conditions: Table 4
# Protocol: as §1, §2
# [4] = tested on: Th1 clone H1; assay: BUdR incorporation ELISA proliferation assay, Th1 clone H1; conditions: Table 12
# Protocol: as §1, §2
# [5] = tested on: iLRP-specific T cell clone L4 (Tc); assay: BUdR incorporation ELISA proliferation assay, Tc clone L4; conditions: for BudR Incorporation (A450), T cell clone L4 (Tc): Table 8, overlapping 12-mers of iLRP 136-166, 100 U/ml IL-2; for Proliferation of Tc clone L4 (in words): text on Table 8
# Protocol: as §1, §3
# as §4, with “0.9). […]” for “0.9).”
# [6] = tested on: iLRP-specific T cell clone H2 (Ts); assay: BUdR incorporation ELISA proliferation assay, Ts clone H2; conditions: for BudR Incorporation (A450), T cell clone H2 (Ts): Table 8, overlapping 12-mers of iLRP 136-166, 100 U/ml IL-2
# Protocol: as §1, §3
# as §4, with “0.9). […]” for “0.9).”
# [7] = tested on: iLRP-specific T cell clone L5 (Tc); assay: BUdR incorporation ELISA proliferation assay, Tc clone L5; conditions: for BudR Incorporation (A450), T cell clone L5 (Tc): Table 8, overlapping 12-mers of iLRP 136-166, 100 U/ml IL-2
# Protocol: as §1, §3
# as §4, with “0.9). […]” for “0.9).”
# [8] = tested on: iLRP-specific T cell clone H3 (Th1); assay: BUdR incorporation ELISA proliferation assay, Th1 clone H3; conditions: for BudR Incorporation (A450), T cell clone H3 (Th1): Table 8, overlapping 12-mers of iLRP 136-166, 100 U/ml IL-2
# Protocol: as §1, §3
# as §4, with “0.9). […]” for “0.9).”
# [9] = tested on: iLRP-specific Th1, Tc, and Ts clones; assay: BUdR incorporation proliferation assay, comparison across iLRP-specific T cell clone types; conditions: Table 14; type of T cell clone reactive with the 12-mer
# Protocol: as §1, §3, §4
# Determination of the portion of the truncated iLRP/OFA protein or peptide reacted to by a given clone was done by analysis of the proliferation pattern to the various truncated proteins or peptides. […]
# [10] = tested on: iLRP-specific T cell clone H4 (Ts); assay: BUdR incorporation ELISA proliferation assay, Ts clone H4; conditions: for BudR Incorporation (A450), T cell clone H4 (Ts): Table 8, overlapping 12-mers of iLRP 136-166, 100 U/ml IL-2
# Protocol: as §1, §3
# as §4, with “0.9). […]” for “0.9).”
# [11] = tested on: CD8 iLRP-specific T cell clone M11 (Ts); assay: BUdR incorporation ELISA proliferation assay, Ts clone M11; conditions: Table 5
# Protocol: as §1, §2
# [12] = Table 7, stimulated by a.a.'s 136-166 sequence or controls
Substance,"BudR Incorporation (A450), T cell clone L4 (Tc) [5]","BudR Incorporation (A450), T cell clone H2 (Ts) [6]","BudR Incorporation (A450), T cell clone L5 (Tc) [7]","BudR Incorporation (A450), T cell clone H3 (Th1) [8]",Reactive T cell clones [9],"BudR Incorporation (A450), T cell clone H4 (Ts) [10]",further results
QMEQYIYKRKSD [P3 (aa 33-44)],–,–,–,–,–,–,Proliferation of clone H5 (in words) [1]: proliferated to iLRP peptides 3 and 4 equally well
QMKEEDVLKLLAA [Peptide 3],–,–,–,–,–,–,"Proliferation of clone L1 (in words) [2]: does react somewhat; BUdR Incorporation (A450) of iLRP-specific T cell clone L1 cells, Expt. 1 [2]: .09 A450; BUdR Incorporation (A450) of iLRP-specific T cell clone L1 cells, Expt. 2 [2]: .07 A450"
RTWEKLLLAARA [P8 (aa 53-64)],–,–,–,–,–,–,Proliferation of clone M3 (in words) [3]: proliferated to iLRP peptides 7 and 8 equally well
SAAPTAQATEWV [P30 (277-288)],–,–,–,–,–,–,Response of clone H1 (in words) [4]: responded best
SPLRYVDIAIPC [Peptide 31-5],.91 A450,.016 A450,.024 A450,.95 A450,Tc & TH1,.016 A450,Proliferation of Tc clone L4 (in words) [5]: proliferated to peptides 31-5 and 31-6 equally; Response of Th1 clone H3 (in words) ([8]; text on Table 8): strongest response
TIALCNTDSPLR [Peptide 31-3],.016 A450,.015 A450,.90 A450,.016 A450,Tc,.017 A450,Proliferative response of Tc clone L5 (in words) ([7]; text on Table 8): equal proliferative response
TPIAGRFTPGTF [P19 (aa 97-108)],–,–,–,–,–,–,Proliferation of clone M11 (in words) [11]: proliferated equally well
VNLPTIALCNTD [Peptide 31-2],.018 A450,.22 A450,.016 A450,.015 A450,Ts,.24 A450,Proliferation of Ts clone H2 (in words) ([6]; text on Table 8): proliferated equally; Proliferation of Ts clone H4 (in words) ([10]; text on Table 8): proliferated equally
YIYKRKSDGTYI [P4 (aa 37-48)],–,–,–,–,–,–,Proliferation of clone H5 (in words) [1]: proliferated to iLRP peptides 3 and 4 equally well
YVDIAIPCNNKG [Peptide 31-6],.90 A450,.015 A450,.015 A450,.03 A450,Tc,.016 A450,Proliferation of Tc clone L4 (in words) [5]: proliferated to peptides 31-5 and 31-6 equally
"iLRP truncated protein 13: truncated iLRP protein, a.a.'s 242-295; negative control",.017 A450,.017 A450,.016 A450,.015 A450,–,.018 A450,"BUdR Incorporation (A450) of iLRP-specific T cell clone L1 cells, Expt. 1 [2]: .016 A450; BUdR Incorporation (A450) of iLRP-specific T cell clone L1 cells, Expt. 2 [2]: .014 A450; BUdR incorporation (A450), clone L4 (Tc) [5, 12]: .017 A450; BUdR incorporation (A450), clone H2 (Ts) [6, 12]: .015 A450; BUdR incorporation (A450), clone L5 (Tc) [7, 12]: .015 A450; BUdR incorporation (A450), clone H3 (Th1) [8, 12]: .017 A450; BUdR incorporation (A450), clone H4 (Ts) [10, 12]: .016 A450"
